Source: PMC6757289, “Design and Characterization of SGK3-PROTAC1, an Isoform Specific SGK3 Kinase PROTAC Degrader” (ACS Chemical Biology, 2019)
Like-named read-outs stand apart in the source and are kept apart here.

Columns and labels:
Assay in all cases: kinase profiling panel
Assay type in all cases: biochemical
Conditions in all cases: read-out: % Activity Remaining
CAMKK beta = CAMKK beta (Homo sapiens, UniProt Q96RR4)
Text: (§1) Protein kinase profiling against a Dundee panel of 140 protein kinases was undertaken at the International Centre for Protein Kinase Profiling. The result for each kinase was presented as a mean kinase activity of the reaction taken in triplicate relative to a control sample treated with DMSO. Assay conditions and abbreviations are available at http://www.kinase-screen.mrc.ac.uk.

IRR = IRR (Homo sapiens, UniProt P14616)
Text: as §1

TSSK1 = molecular target: T1, TSSK1 (Homo sapiens, UniProt Q9BXA7)
T1 sequence (Q9BXA7 1-367): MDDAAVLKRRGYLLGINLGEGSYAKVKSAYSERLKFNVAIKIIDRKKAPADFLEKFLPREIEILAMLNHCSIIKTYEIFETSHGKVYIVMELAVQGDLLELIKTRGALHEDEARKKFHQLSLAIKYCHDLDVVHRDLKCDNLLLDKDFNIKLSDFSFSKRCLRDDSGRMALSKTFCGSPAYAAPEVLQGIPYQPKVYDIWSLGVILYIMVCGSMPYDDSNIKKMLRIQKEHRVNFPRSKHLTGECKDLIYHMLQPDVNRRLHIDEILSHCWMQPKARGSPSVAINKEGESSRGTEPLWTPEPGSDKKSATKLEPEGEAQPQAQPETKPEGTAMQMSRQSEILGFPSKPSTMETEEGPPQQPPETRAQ
Text: as §1

CLK2 = CLK2 (Homo sapiens, UniProt P49760)
Text: as §1

JNK2 = JNK2 (Homo sapiens, UniProt P45984)
Text: as §1

CHK2 = CHK2 (Homo sapiens, UniProt O96017)
Text: as §1

ASK1 = molecular target: T2, ASK1 (Homo sapiens, UniProt Q99683)
T2 sequence (Q99683 1-1374): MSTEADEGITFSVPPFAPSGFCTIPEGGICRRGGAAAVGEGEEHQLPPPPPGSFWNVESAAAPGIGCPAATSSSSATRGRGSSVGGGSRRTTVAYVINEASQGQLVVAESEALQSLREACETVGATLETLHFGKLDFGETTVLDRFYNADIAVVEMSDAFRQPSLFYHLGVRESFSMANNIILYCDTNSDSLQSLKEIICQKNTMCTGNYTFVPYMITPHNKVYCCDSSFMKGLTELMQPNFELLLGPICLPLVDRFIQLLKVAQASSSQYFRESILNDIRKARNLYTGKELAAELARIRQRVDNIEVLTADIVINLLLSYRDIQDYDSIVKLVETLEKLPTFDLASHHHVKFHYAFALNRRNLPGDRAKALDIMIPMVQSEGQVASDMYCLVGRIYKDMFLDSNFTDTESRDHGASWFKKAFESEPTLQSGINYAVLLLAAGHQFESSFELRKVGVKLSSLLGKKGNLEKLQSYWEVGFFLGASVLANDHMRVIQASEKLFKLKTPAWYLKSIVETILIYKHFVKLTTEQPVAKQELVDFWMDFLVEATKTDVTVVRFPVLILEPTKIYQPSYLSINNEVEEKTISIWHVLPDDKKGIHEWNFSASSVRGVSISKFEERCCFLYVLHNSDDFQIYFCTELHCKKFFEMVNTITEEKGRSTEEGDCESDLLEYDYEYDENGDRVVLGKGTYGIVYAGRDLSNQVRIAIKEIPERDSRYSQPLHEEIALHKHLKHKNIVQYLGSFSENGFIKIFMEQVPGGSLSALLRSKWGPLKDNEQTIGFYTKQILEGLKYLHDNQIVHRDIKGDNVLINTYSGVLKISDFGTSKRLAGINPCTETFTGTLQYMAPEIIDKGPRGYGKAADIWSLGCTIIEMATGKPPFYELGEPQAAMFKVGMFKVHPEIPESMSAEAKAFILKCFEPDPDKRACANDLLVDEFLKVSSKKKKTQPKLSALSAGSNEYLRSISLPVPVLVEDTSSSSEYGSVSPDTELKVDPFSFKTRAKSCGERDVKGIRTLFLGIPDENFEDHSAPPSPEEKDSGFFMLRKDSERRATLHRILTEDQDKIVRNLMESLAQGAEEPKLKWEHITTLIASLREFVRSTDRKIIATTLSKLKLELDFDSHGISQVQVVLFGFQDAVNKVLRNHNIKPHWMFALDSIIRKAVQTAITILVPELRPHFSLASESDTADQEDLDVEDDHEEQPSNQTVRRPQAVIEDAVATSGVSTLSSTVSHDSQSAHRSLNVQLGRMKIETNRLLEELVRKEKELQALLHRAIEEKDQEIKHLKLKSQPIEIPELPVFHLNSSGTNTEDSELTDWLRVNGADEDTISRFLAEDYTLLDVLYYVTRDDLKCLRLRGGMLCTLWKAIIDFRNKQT
Text: as §1

DYRK1A = DYRK1A (Homo sapiens, UniProt Q13627)
Text: as §1

Chain of IRR (P14616 27-1297): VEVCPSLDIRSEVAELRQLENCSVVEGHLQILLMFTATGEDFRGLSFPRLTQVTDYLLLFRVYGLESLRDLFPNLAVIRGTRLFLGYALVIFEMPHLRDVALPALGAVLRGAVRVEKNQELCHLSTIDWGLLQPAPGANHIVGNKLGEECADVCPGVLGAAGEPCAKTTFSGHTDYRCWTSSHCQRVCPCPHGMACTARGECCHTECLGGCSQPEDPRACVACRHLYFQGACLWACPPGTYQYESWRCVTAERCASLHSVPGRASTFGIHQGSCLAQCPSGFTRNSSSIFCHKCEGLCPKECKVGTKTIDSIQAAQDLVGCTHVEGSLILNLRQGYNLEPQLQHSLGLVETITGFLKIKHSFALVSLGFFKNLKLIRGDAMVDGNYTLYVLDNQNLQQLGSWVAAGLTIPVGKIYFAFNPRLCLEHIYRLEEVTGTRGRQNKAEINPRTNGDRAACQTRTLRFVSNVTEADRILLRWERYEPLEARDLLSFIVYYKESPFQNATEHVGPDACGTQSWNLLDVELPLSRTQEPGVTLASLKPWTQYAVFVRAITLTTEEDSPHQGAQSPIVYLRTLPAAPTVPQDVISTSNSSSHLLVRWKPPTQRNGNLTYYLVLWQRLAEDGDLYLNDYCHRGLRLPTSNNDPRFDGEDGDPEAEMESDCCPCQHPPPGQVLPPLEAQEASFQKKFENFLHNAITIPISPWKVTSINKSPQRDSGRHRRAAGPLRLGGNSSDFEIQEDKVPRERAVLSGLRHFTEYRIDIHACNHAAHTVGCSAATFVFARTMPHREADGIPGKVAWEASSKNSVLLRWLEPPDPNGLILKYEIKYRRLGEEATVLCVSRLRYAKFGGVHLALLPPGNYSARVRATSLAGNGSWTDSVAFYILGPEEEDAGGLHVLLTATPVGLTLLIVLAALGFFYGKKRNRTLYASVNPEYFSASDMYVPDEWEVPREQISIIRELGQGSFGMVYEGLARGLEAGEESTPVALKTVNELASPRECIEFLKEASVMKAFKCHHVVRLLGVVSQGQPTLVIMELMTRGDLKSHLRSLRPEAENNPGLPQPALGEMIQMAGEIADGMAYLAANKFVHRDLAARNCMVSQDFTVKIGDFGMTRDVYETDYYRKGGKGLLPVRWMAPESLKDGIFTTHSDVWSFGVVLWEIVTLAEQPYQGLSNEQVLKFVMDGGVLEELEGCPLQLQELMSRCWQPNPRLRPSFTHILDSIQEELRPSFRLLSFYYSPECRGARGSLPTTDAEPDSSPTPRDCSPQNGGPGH
Chain of CAMKK beta (Q96RR4 whole entry): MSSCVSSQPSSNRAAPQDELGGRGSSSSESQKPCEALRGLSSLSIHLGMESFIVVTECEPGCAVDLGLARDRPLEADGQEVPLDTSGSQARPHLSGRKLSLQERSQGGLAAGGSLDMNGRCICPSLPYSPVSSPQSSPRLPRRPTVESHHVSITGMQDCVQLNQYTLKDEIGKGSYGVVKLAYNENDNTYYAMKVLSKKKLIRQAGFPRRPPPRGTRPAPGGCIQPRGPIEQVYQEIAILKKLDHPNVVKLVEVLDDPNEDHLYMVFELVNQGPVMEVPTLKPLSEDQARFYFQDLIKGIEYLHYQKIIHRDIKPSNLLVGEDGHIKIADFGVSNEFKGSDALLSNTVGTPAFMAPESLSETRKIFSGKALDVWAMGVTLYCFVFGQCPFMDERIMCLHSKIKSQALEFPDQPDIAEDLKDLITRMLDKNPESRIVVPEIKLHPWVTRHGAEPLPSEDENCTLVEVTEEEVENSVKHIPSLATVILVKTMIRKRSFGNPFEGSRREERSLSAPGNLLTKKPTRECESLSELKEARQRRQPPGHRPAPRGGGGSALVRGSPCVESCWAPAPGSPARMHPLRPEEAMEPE
Chain of JNK2 (P45984 whole entry): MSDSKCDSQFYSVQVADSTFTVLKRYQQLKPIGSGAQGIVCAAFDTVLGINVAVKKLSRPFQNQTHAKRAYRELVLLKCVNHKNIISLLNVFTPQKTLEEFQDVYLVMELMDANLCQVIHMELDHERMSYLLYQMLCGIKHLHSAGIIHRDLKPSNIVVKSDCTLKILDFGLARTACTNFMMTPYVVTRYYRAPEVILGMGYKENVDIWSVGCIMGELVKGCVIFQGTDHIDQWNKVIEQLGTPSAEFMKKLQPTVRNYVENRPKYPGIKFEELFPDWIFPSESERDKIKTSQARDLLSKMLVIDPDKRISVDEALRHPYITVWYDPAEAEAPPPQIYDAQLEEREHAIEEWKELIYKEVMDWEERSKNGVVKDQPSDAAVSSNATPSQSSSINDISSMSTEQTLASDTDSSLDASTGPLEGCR
Chain of CHK2 (O96017 whole entry): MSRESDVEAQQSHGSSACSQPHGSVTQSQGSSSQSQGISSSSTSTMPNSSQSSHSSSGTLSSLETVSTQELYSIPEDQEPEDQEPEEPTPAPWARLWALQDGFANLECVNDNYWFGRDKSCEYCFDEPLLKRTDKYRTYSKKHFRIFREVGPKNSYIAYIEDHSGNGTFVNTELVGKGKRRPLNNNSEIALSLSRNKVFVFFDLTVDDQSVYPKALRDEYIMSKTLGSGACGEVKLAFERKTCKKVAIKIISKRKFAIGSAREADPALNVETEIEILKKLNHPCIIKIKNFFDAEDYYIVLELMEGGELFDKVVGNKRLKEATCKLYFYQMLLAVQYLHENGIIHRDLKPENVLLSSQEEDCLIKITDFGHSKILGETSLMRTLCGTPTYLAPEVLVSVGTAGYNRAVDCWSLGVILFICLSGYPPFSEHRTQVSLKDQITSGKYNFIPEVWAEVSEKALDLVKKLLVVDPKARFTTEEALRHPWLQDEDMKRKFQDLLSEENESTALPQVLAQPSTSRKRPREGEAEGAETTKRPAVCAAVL
Chain of CLK2 (P49760 whole entry): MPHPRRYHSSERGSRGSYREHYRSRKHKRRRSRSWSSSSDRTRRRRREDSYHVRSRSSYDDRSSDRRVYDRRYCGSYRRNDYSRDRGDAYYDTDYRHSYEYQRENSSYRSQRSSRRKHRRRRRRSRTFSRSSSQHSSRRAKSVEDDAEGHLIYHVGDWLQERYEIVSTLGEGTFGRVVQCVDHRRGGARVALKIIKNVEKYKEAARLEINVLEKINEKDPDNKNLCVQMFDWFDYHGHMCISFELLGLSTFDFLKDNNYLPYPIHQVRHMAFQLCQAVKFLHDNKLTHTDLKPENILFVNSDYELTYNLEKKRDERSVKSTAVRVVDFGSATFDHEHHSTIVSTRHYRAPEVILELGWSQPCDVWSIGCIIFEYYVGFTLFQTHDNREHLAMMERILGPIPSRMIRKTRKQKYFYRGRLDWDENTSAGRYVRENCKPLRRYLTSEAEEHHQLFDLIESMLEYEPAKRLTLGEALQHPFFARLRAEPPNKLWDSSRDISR

SMILES	remaining activity at 1 µM (CAMKK beta) [%]	remaining activity at 1 µM (IRR) [%]	remaining activity at 1 µM (TSSK1) [%]	remaining activity at 1 µM (CLK2) [%]	remaining activity at 1 µM (JNK2) [%]	remaining activity at 1 µM (CHK2) [%]	remaining activity at 1 µM (ASK1) [%]	remaining activity at 1 µM (DYRK1A) [%]	remaining activity at 1 µM (CAMKK beta; 1 µM) [%]	remaining activity at 1 µM (IRR; 1 µM) [%]	remaining activity at 1 µM (TSSK1; 1 µM) [%]	remaining activity at 1 µM (CLK2; 1 µM) [%]	remaining activity at 1 µM (JNK2; 1 µM) [%]	remaining activity at 1 µM (CHK2; 1 µM) [%]	remaining activity at 1 µM (ASK1; 1 µM) [%]	remaining activity at 1 µM (DYRK1A; 1 µM) [%]
COc1ccc(Cl)c(S(=O)(=O)Nc2ccc(-c3nc(OC[C@H]4CNCCO4)c4c(C)n[nH]c4n3)cc2)c1 [290-R, reference compound]	77	96	98	88	105	9	104	103	–	–	–	–	–	–	–	–
Cc1ccc(F)c(S(=O)(=O)Nc2ccc(-c3nc(OC[C@H]4CNCCO4)c4cn[nH]c4n3)cc2)c1 [308-R, reference compound]	106	106	94	104	113	24	87	81	–	–	–	–	–	–	–	–
Cc1ccc(F)c(S(=O)(=O)Nc2ccc(-c3nc(OC[C@H]4CN(CCCCCCOCCOCCOCC(=O)N[C@H](C(=O)N5C[C@H](O)C[C@H]5C(=O)NCc5ccc(-c6scnc6C)cc5)C(C)(C)C)CCO4)c4cn[nH]c4n3)cc2)c1 [SGK3-PROTAC1]	–	–	–	–	–	–	–	–	99	103	115	104	117	85	113	105
Cc1ccc(F)c(S(=O)(=O)Nc2ccc(-c3nc(OC[C@H]4CN(CCCCCCOCCOCCOCC(=O)N[C@H](C(=O)N5C[C@@H](O)C[C@H]5C(=O)NCc5ccc(-c6scnc6C)cc5)C(C)(C)C)CCO4)c4cn[nH]c4n3)cc2)c1 [cisSGK3-PROTAC1]	–	–	–	–	–	–	–	–	108	90	113	85	109	99	102	99
